{"source": "patent EP1137386B1", "about": "“USE OF TRICLOSAN AS AN AN[…]” (Jawaharlal Nehru Centre For Advanced Scientific Research, priority 1999, dated 2001)", "key": {"Plasmodium falciparum": {"tested_on": "Plasmodium falciparum", "test": "In vitro effect on growth of Plasmodium falciparum (parasitemia and morphology in Giemsa stained smears)", "type": "cell-based", "settings": "P. falciparum cultures in human erythrocytes", "procedure": "Plasmodium falciparum cultures with 5-6% parasitemia are diluted with washed 50% suspension of red blood cells and CRPMI so that the initial parasitemia becomes 1% and hematocrit 2%. 1.5 millilitres of this diluted infected cell suspension is placed in flat bottom vials, which are kept in a desiccator equipped with a stopcock. A candle is lit and the cover of the desiccator is put on with the stopcock open. When the candle goes out, the stopcock is closed. This is a simple but effective way to produce an atmosphere of low O2(1-5%) and high CO2 content (7%). Fresh medium is provided daily by withdrawing the supernatant and supplementing cells with 1.25 millilitres of CRPMI. Fresh erythrocytes are added every third or fourth day when the parasitemia reaches 6-8%, bringing it down to 1%. In cultures, all stages of the asexual cycle are seen at any one time, since the cultures have lost some of the synchronicity characteristic of P. falciparum in man. Delicate rings with two chromatin dots are common. Schizonts or segmenters show 15-18 merozoites, the same numbers seen in material from human infections.\nThis is done by observing the stained smear of infected red blood cells under the microscope in oil immersion. The following stages of Plasmodium falciparum with their characteristic features can be seen. These stages are as follows: • 1. […]"}, "P. falciparum": {"tested_on": "P. falciparum", "test": "Uptake of [35S] methionine as an index of inhibition of parasite growth", "type": "cell-based", "settings": "P. falciparum in culture, different concentrations of triclosan (Fig. 5)", "procedure": "Uptake of [^35S] methionine, NEN, DuPont, (specific activity 1175 Ci/mmol) is used as an index of parasite growth. The final isotope concentration to be added in each well is 100 µCi/ml culture. Before an hour of total incubation period (24, 48, or 72 h) 20 µl of the isotope in culture medium is added to each well and incubated for an additional 1 hr. After incubation, contents of the well are pipetted into microcentrifuge tubes kept on ice. The samples are spun at 3000 g for 10 sec. The supernatant is discarded and the pellet washed twice in 1.0 ml of 0.9% NaCl. The pellet is lysed with 50 µl distilled water and spotted onto Whatman No. 3 discs (presoaked in 10% TCA with cold methionine and dried). After spotting, these discs are allowed to dry and then they are treated with hot TCA, cold TCA (10% throughout), alcohol ether (2:1, v/v) and finally with ether. […] The discs are air dried after ether treatment, and counted in optiphase 'Hisafe' scintillation fluid (Wallac Scintillation Products, U.K.) in a Wallac β-counter (Model 1409, Finland).\nThe drug and parasites were aliquoted in required number of rows of wells in 96 well titre plates as described in example 1. […] After ether treatment, the discs were air dried, placed in scintillation fluid phase III from Wallac and counted in Wallac β-counter."}, "[1]": {"tested_on": "cell free system for the synthesis of fatty acids of Plasmodium falciparum", "test": "Incorporation of [14C] malonyl-CoA in fatty acids in cell free system, scintillation counting and TLC/autoradiography", "type": "biochemical", "procedure": "For cell free fatty acid synthesis in E.Coli, See Δ P.W. Majerus et al. (1968), Methods in Enzymol, 14, 43-52.\nThe pellet was washed four to five times with cold phosphate buffer saline and after washing, the pellet was suspended in 3.0 ml of phosphate buffer saline and equal volume of 0.15% saponin was added to isolate free parasites. (See specific embodiments). The late ring stage (trophozoites) of the parasites thus isolated were washed once thoroughly with PBS and the cells suspended in 0.4 ml of 1 mM potassium phosphate buffer pH 7.0 and sonicated for 15 sec. The cell lysate (2.0 mg cell extract protein) thus prepared was mixed with 200 µl of 200 mM of potassium phosphate buffer pH 7.0 containing 70 uM acetyl CoA, 8 mM glucose-6-phosphate, 3 mM each of NADH and NADPH, 0.4 mM EDTA, 4 units of glucose-6-phosphate dehydrogenase, 45 uM [^14C]malonyl-CoA (specific activity 54.2 mCi/mmol, DuPont) and 3 mM dithiothreitol (DTT). To this 200 µg of DTT reduced acyl carrier protein (ACP) from E. coli (Sigma) in 25 µl of 75 mM phosphate buffer was added. The reaction mixture was incubated for 30 min at 37°C. […] A part (25 µl) of the sample in methanol was counted by scintillation counting to determine also the extent of incorporation of [^14C] malonyl-CoA in fatty acids both in the presence and absence of Triclosan."}, "Plasmodium berghei": {"tested_on": "Plasmodium berghei", "test": "Protection of mice against malaria after administration in vivo (P. berghei infected mice)", "set-up": "species or system Swiss mice", "settings": "for mice survived till day 14 / mice survived till 14th day: subcutaneously in DMSO, day 1 of infection and next 6 days, P. berghei infected male swiss mice", "excerpt": "The present invention involves the use of triclosan for the manufacture of an antimalarial agent to inhibit the growth of the murine malaria parasite Plasmodium berghei as well. The effect of various concentration of triclosan in controlling parasitemia is monitored in Plasmodium berghei infected mice. • 1. Plasmodium berghei infection: P. berghei parasite is maintained in Swiss male mice through serial blood passage. • 2. Triclosan treatment: Swiss mice (5 animals/group) are infected on day zero with about 10^6 infected red blood cells (IRBC). The animals are kept under observation to record parasitemia and mortality. Parasitemia is determined by counting 10^3 red cells in a thin blood smear stained with Giesma and expressed as number of parasitized cells/100 erythrocytes. The animals given only dimethylsulfoxide (DMSO) are used as controls and referred to as untreated animals. Level of parasitemia is >1% on the first day of triclosan treatment. Parasitemia is monitored every 24 hrs, for 7-8 days.\nMale swiss mice were infected with P. berghei. The animals were kept under observation and parasitemia was recorded daily. Triclosan (0.8, 1.6, 3.0, 8.0, 14.0 and 28.0 mg/kg body weight of mice respectively) in DMSO was given subcutaneously on day 1 of infection when parasitemia was>1% and subsequently for the next 6 days. Experiments with triclosan were conducted with a group of five animals, each for the dosages mentioned above. DMSO was given to control animals (6) and were referred to as untreated animals. Parasitemia and mortality were recorded till the untreated mice died. Typically all the six mice in the control group died by day 9 of infection while 3, 3 and 4 mice out of 5 treated with 0.8, 1.6 and 3.0 mg triclosan/kg (body weight), survived till day 14. All the mice (5 out of 5) survived till 14th day when treated with 8.0, 14.0 and 28.0 mg triclosan/kg (body weight)."}}, "data": [{"smiles": "Oc1cc(Cl)ccc1Oc1ccc(Cl)cc1Cl", "note": "[triclosan, 2,4,4'-trichloro-2'-hydroxydiphenyl ether]", "values": [{"measurement": "growth of the human malaria parasite in vitro", "setting": "Plasmodium falciparum", "value": "inhibits the growth of the human malaria parasite in vitro in a very potent manner"}, {"measurement": "inhibition of protein synthesis, uptake of (^35S) methionine", "setting": "P. falciparum", "value": "reduced uptake of (^35S) methionine"}, {"measurement": "incorporation of [^14C] malonyl CoA in fatty acids", "setting": "[1]; cell free system, 0.15, 0.225, 0.3, 0.6 and 1.2 µg of triclosan, 30 min at 37°C", "value": "inhibits incorporation of [^14C] malonyl CoA in fatty acids"}, {"measurement": "longer chain fatty acids synthesized (elongation reaction)", "setting": "[1]; cell free system, TLC with autoradiography", "value": "progressive decline in the longer chain fatty acids"}, {"measurement": "mice survived till day 14", "setting": "Plasmodium berghei; 0.8 mg/kg body weight", "value": "3 mice out of 5"}, {"measurement": "mice survived till day 14", "setting": "Plasmodium berghei; 1.6 mg/kg body weight", "value": "3 mice out of 5"}, {"measurement": "mice survived till day 14", "setting": "Plasmodium berghei; 3.0 mg/kg body weight", "value": "4 mice out of 5"}, {"measurement": "mice survived till 14th day", "setting": "Plasmodium berghei; 8.0 mg/kg body weight", "value": "5 out of 5"}, {"measurement": "mice survived till 14th day", "setting": "Plasmodium berghei; 14.0 mg/kg body weight", "value": "5 out of 5"}, {"measurement": "mice survived till 14th day", "setting": "Plasmodium berghei; 28.0 mg/kg body weight", "value": "5 out of 5"}, {"measurement": "mortality", "setting": "Plasmodium berghei; P. berghei infected Swiss mice, untreated animals die by 8 days after the infection", "value": "delayed mortality is observed in treated animals depending on dose"}, {"measurement": "parasitemia", "setting": "Plasmodium berghei; injection in mice infected with P. berghei", "value": "able to curtail the parasitemia"}]}]}
